The values below come from ChEMBL document CHEMBL1150606, “Cytotoxic sphingosine 4-sulfates from the sponge Spirastrella abata” (2002).

Structures are written as SMILES. Values after ≈ are worked out from the molar mass of the structure shown.

Assay type in all cases: functional
Holding throughout (details): read-out: ED50 (the source's name)

Experiment [1] deals with A549. As to the kind of experiment: Cytotoxicity against human A549 cells.
Experiment [2] has as its system SK-OV-3. As to the kind of experiment: Cytotoxicity against human SKOV3 cells.
Experiment [3] deals with SK-MEL-2. As to the kind of experiment: Cytotoxicity against human SK-MEL-2 cells.
Experiment [4] relates to XF498. Nature of the experiment: Cytotoxicity against human XF498 cells.
In experiment [5] the test system is HCT-15. As to the kind of experiment: Cytotoxicity against human HCT15 cells.

On to `CCCCCCCCCCC/C=C/C[C@@H](OS(=O)(=O)O)[C@@H](O)[C@@H](N)CO`, for which the EC50 in experiment [1] stood at 9.9 µg/mL (≈ 25 µM); in experiment [2], 8.2 µg/mL (≈ 20.7 µM); in experiment [3], 4 µg/mL (≈ 10.1 µM); in experiment [4], 4.6 µg/mL (≈ 11.6 µM); in experiment [5], 3.7 µg/mL (≈ 9.35 µM).
As for `CCCCCCCCCC/C=C/C[C@@H](OS(=O)(=O)O)[C@@H](O)[C@@H](N)CO`, the EC50 in experiment [1], in experiment [2], in experiment [3], in experiment [4] and in experiment [5] was 0.3 µg/mL (≈ 0.786 µM) in each case.
